Laboratory results published in patent publication US9586963B2 (GENFIT, priority 2011, dated 2017).

Tests used:
db/db mice [1] = assay: In vivo evaluation in db/db mice: glycemia, HbA1c, plasma triglycerides; settings: once daily by gavage, 28 days
Description: 7-weeks-old male db/db mice were purchased from Charles River (France). Mice were 9-weeks-old at the beginning of the study. All mice were housed 2 per cage under controlled conditions of humidity, lighting and temperature. They had free access to food (R03, SAFE) and water.
Mice were randomized according to their body weight, and the non-fasting glycaemia, and assigned to 3 different groups: • Group 1: Control_Vehicle n=8 • Group 2: Cpd-4-39 25 mg/kg n=8 • Group 3: Cpd-4-39 100 mg/kg n=8 Treatments and Sample Analysis
The treatments were administered once daily, by gavage (10 mL/kg) for 28 consecutive days (unless otherwise mentioned). For oral administrations, compound was suspended in CMC 1%+Tween 80 0.1%.
Non fasting blood glucose level was determined from tail vein blood using a glucometer (Smart Chek, Kitvia), Blood samples were withdrawn under anesthesia by retro-orbital puncture at the end of the treatment period. Tubes containing blood were rapidly centrifuged after collection (15 minutes at 4,000 rpm/4° C.) and the plasma fraction was collected. Plasma aliquots were stored at −20° C. for further analyses.
The blood concentration of glycosylated hemoglobin A1c was determined using the Randox kit for Daytona automate (Randox, cat# HA 3830) according to the manufacturer's recommendations. Total hemoglobin and HbA1c concentrations were measured and the HbA1c result was expressed as a percentage of the total hemoglobin concentration.
The triglyceride content of plasma was measured using the Randox kit for Daytona automate (Randox, cat# TR 3823) according to the manufacturer's recommendations. In this protocol, the triglycerides are hydrolyzed by a lipase. The resulting glycerol concentration is then measured by an enzymatic method and spectrophotometric measurement. Results are expressed in mg/dL. • Oral Glucose Tolerance Test
At the end of the treatment period, animals were anesthetized with isoflurane and then sacrificed by cervical dislocation. Liver, quadriceps muscle and epididymal adipose tissues were collected. […]

Bmal1 = assay: Gene expression of Rev-Erb alpha target gene Bmal1 in tissues of treated db/db mice; format: in vivo; settings: 25 and 100 mpk, adipose tissue, muscle, liver
From the text: At the end of the treatment period, animals were anesthetized with isoflurane and then sacrificed by cervical dislocation. Liver, quadriceps muscle and epididymal adipose tissues were collected. The Student's t-test was used to test for statistical differences between drug and vehicle treatments when a single dose of drug was used while ANOVA followed by Dunnett's Multiple Comparison post hoc test was used for dose responses.
Gene expression studies have been performed on mRNA isolated from different metabolic tissues such as liver, adipose tissue and skeletal muscle. […] is considered as a target gene of Rev-Erba. Activation of Rev-Erba activity should then translate in a reduction of […] gene expression.

Rev-Erb alpha [2] = target: T1, Rev-Erb alpha (Homo sapiens, UniProt P20393); assay: M2H (mammalian two-hybrid) cellular activation assay of Rev-Erb alpha; format: cell-based; settings: M2H assay, HEK293 cells, Gal4-Rev-Erb alpha / VP16-NCoR, luciferase reporter
T1 sequence (P20393 284-614 limits assumed): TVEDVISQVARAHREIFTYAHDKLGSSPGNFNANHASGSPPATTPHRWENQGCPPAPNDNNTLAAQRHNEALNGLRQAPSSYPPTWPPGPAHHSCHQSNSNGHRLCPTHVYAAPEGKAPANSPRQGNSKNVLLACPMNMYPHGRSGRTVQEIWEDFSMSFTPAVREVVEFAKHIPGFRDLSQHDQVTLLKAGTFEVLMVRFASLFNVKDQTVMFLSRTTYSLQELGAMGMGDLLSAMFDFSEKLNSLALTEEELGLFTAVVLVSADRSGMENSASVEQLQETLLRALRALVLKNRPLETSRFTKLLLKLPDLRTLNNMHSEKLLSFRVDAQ
Summary of the method: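 Six-point dose-response, 18 h, 37 °C, serum-free, in HEK293 cells carrying a Gal4-RE luciferase reporter with Gal4-Rev-Erb alpha or beta plus VP16-NCoR (corepressor interaction readout). EC50 and TOP activation (%) derived from luminescence across four experiments.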

db/db mice [3] = assay: Oral glucose tolerance test in db/db mice; format: in vivo; settings: 50 mpk
Description: Oral glucose tolerance test (OGTT) was performed as followed, at day 35 of treatment, after a 16-hour fasting period, an oral glucose load was administered at T=0 (2 g/kg of glucose, 10 mL/kg) and glycemia was measured at the tail vein at T=15, 30, 60, 90, 120 & 180 minutes.
Oral glucose tolerance test is a widely used assay perform to assess the body's tolerance to an orally glucose bolus, it is considered as a good marker of insulin resistance and diabetes. […] Improvement of the body's insulin sensitivity is illustrated on FIG. 3(b).

Rev-Erb alpha [4] = target: T2, Rev-Erb alpha (Homo sapiens, UniProt P20393); settings: Moore J T et al., 2006; cited from earlier work
T2 sequence (P20393 1-614): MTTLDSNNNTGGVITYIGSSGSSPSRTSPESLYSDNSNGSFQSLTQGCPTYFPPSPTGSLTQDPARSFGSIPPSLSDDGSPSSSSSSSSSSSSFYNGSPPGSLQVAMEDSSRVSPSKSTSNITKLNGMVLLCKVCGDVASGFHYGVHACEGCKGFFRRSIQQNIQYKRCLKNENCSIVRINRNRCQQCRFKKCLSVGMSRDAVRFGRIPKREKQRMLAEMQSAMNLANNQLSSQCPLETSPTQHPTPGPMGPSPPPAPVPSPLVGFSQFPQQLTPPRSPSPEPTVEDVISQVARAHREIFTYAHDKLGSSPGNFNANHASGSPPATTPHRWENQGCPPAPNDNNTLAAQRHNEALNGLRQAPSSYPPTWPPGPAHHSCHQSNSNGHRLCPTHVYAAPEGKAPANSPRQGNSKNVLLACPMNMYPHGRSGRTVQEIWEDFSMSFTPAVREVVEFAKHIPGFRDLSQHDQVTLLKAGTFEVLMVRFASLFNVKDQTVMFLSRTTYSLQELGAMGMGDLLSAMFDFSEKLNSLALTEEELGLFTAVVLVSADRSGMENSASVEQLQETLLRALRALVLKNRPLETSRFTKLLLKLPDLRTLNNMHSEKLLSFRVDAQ

Row | Structure (SMILES) | Circulating triglycerides (db/db mice [1]; 25 and 100 mpk) | HbA1c (db/db mice [1]; 25 and 100 mpk) | glycemia (db/db mice [1]; 100 mpk, compared to control mice) | Small expression in the studied organs (Bmal1 gene expression, FIGS. 13) (Bmal1) | EC50 (Rev-Erb alpha [2]) [nM] | area under the curve, glucose tolerance (db/db mice [3]; OGTT) | evolution of blood glucose in oral glucose tolerance test (db/db mice [3]; day 35, 16-hour fasting, 2 g/kg glucose) | Kd (Rev-Erb alpha [4]) [nM]
1 | FC(F)(F)c1ccc(-c2cccnc2)c(Oc2ccc3nnc(Cl)n3n2)c1 | reduced | significantly reduced | significantly reduced | significant inhibition | 100 to 1000 | Cpd-4-39 dependent effect on glucose tolerance | improved evolution of their blood glucose | –
2 | C=CC1=C(C)c2cc3[n-]c(cc4[n-]c(cc5nc(cc1n2)C(C)=C5C=C)c(C)c4CCC(=O)O)c(CCC(=O)O)c3C.[Fe+2] [Heme] | – | – | – | – | – | – | – | 2000 to 3000
